Measurements taken from patent publication US11993570B2, “Cationic lipids” (TAKEDA PHARMACEUTICAL COMPANY LIMITED, priority 2017, dated 2024).

What was measured:
[1] = Analysis of luciferase mRNA lipid particle composition (Production Example 1); type: physicochemical; settings: for Particle size: lipid particle cationic lipid:DPPC:cholesterol:GM-020=60:10.6:28:1.4 with luciferase mRNA, Zetasizer Nano ZS; for Encapsulation ratio / mRNA Concentration: lipid particle composition with luciferase mRNA, RiboGreen
Text: (§1) The particle size of the lipid particle (in the composition) can be measured by using a known means. For example, a Zetasizer Nano ZS (Malvern Instruments Limited), a particle size analyzer based on an NIBS (non-invasive backscatter) technique, can be used to calculate the particle size as a z-average particle size through cumulant analysis of the autocorrelation function. The particle size (average particle size) of the lipid particle (in the composition) is preferably 10 to 200 nm.
(§2) The concentration and encapsulation ratio of a nucleic acid (e.g., an siRNA, an mRNA) as an active ingredient in the composition of the present invention can be measured by using a known means. For example, after the nucleic acid is fluorescence-labeled with Quant-iT™ RiboGreen® (Invitrogen), the concentration and the encapsulation ratio can be determined by measuring the fluorescence intensity. The concentration of the nucleic acid in the composition can be calculated by using a standard curve prepared from aqueous solutions of the nucleic acid with known concentrations, and the encapsulation ratio can be calculated on the basis of difference in fluorescence intensity depending on the presence or absence of addition of Triton-X100 (a surfactant to disintegrate the lipid particle). The concentration of the nucleic acid in the composition refers to the total concentration of molecules of the nucleic acid encapsulated in the lipid particle and molecules of the nucleic acid not encapsulated in the lipid particle, and the encapsulation ratio refers to the fraction of molecules of the nucleic acid encapsulated in the lipid particle to all the molecules of the nucleic acid in the composition.
(§3) A lipid mixture (cationic lipid produced in Examples:DPPC:cholesterol:GM-020=60:10.6:28:1.4, in mole ratio) was dissolved in 90% EtOH/10% RNase-free water to afford a 8.5 mg/mL lipid solution. Luciferase mRNA (TriLink Bio Technologies) was dissolved in 10 mM 2-morpholinoethanesulfonate (MES) buffer at pH 4.0 to afford a 0.22 mg/mL nucleic acid solution. The lipid solution and nucleic acid solution obtained were mixed by using the apparatus NanoAssemblr (Precision Nanosystems) at room temperature with a flow rate ratio of 3 mL/min:6 mL/min to afford a dispersion containing a lipid particle encapsulating the nucleic acid. By using a Slyde-A-Lyzer (molecular weight cutoff: 20k, Thermo Fisher Scientific), the dispersion obtained was dialyzed with water at room temperature for 1 hour and with PBS at 4° C. for 48 hours. Subsequently, filtration was performed with a 0.2 µm syringe filter (IWAKI CO., LTD.) to prepare a composition for nucleic acid introduction, and thereafter the composition was stored at 4° C. The particle size of the lipid particle was measured by using a Zetasizer Nano ZS (Malvern Instruments Limited). The mRNA concentration and encapsulation ratio of the lipid particle were measured by using a Quant-iT™ RiboGreen® (Invitrogen).

[2] = tested on: HCT116 cells; assay: Test of mRNA transfection into cultured cells (luciferase expression); type: cell-based, human; settings: HCT116, 10 ng luciferase mRNA per well, 24 hours after addition
Protocol: as §3
The human colorectal cancer-derived cell line HCT116 cells were cultured in a 96-well plate at a cell density of 6000 cells/well, and 24 hours thereafter 10 μL of the composition containing 10 ng of luciferase mRNA for nucleic acid introduction (a solution obtained by diluting the product of Production Example 1 to an mRNA concentration of 10 ng/10 μL) was added to the medium. The level of luciferase expressed in HCT116 24 hours after the addition of mRNA was measured by using a Picagene LT2.0 kit (TOYOBO CO., LTD.).

[3] = Analysis of Col1a1/FVII siRNA lipid particle composition (Production Example 2); type: physicochemical; settings: for Particle size: lipid particle cationic lipid:DPPC:cholesterol:GM-020=60:10.6:28:1.4 with Col1a1 and FVII siRNA, Zetasizer Nano ZS; for Encapsulation ratio / siRNA Concentration: lipid particle composition with Col1a1 and FVII siRNA, RiboGreen
Text: as §1, §2
A lipid mixture (cationic lipid produced in Examples:DPPC:cholesterol:GM-020=60:10.6:28:1.4, in mole ratio) was dissolved in 90% EtOH/10% RNase-free water to afford an approximately 7 mg/mL lipid solution. Equal amounts of an siRNA for Col1a1 and an siRNA for Factor VII (FVII) were mixed together, and the mixture was dissolved in 25 mM acetate buffer at pH 4.0 to afford a 0.2 mg/mL nucleic acid solution. Sequence information on the siRNAs are shown in a table below. The lipid solution and nucleic acid solution obtained were mixed by using the apparatus NanoAssemblr (Precision Nanosystems) at room temperature with a flow rate ratio of 3 mL/min:9 mL/min to afford a dispersion containing a lipid particle including the nucleic acids. By using a Slyde-A-Lyzer (molecular weight cutoff: 20k, Thermo Fisher Scientific), the dispersion obtained was dialyzed with water at room temperature for 1 hour and with PBS at 4° C. for 48 hours. Subsequently, filtration was performed with a 0.2 µm syringe filter (IWAKI CO., LTD.) to prepare a composition for nucleic acid introduction, and thereafter the composition was stored at 4° C. The particle size of the lipid particle was measured by using a Zetasizer Nano ZS (Malvern Instruments Limited). The mRNA concentration and encapsulation ratio of the lipid particle were measured by using a Quant-iT™ RiboGreen® (Invitrogen).

Row | SMILES | Particle size [1] | Encapsulation ratio [1] | mRNA Concentration [1] | Mean value of luminescence for 3 wells ([2]; Table 3 (PBS control 560)) | Particle size [3] | Encapsulation ratio [3] | siRNA Concentration [3] | Mean value of luminescence for 3 wells ([2]; Table 4 (PBS control 627))
1 | CCCC/C=C\CCCCCCCC(=O)OCC(COC(=O)CCCCCCC/C=C\CCCC)(COC(=O)CCCCCCC/C=C\CCCC)COC(=O)CCCN(C)C [Example 1, 3-((4-(Dimethylamino)butanoyl)oxy)-2,2-bis(((9Z)-tetradec-9-enoyloxy)methyl)propyl (9Z)-tetradec-9-enoate] | 71 nm | 96% | 136 µg/mL | 227720 cps | – | – | – | –
2 | CCCC/C=C\CCCCCCCC(=O)OCC(COC(=O)CCCCCCC/C=C\CCCC)(COC(=O)CCCCCCC/C=C\CCCC)COC(=O)CCCCN(C)C [Example 2, 3-((5-(dimethylamino)pentanoyl)oxy)-2,2-bis(((9Z)-tetradec-9-enoyloxy)methyl)propyl (9Z)-tetradec-9-enoate] | 90 nm | 96% | 73 µg/mL | 570027 cps | 104 nm | 98% | 251 µg/mL | –
3 | CCCC/C=C\CCCCCCCC(=O)OCC(COC(=O)CCCCCCC/C=C\CCCC)(COC(=O)CCCCCCC/C=C\CCCC)COC(=O)CCCCCN(C)C [Example 3, 3-((6-(dimethylamino)hexanoyl)oxy)-2,2-bis(((9Z)-tetradec-9-enoyloxy)methyl)propyl (9Z)-tetradec-9-enoate] | 93 nm | 96% | 87 µg/mL | 412187 cps | 117 nm | 95% | 196 µg/mL | –
4 | CCCC/C=C\CCCCCCCC(=O)OCC(COC(=O)CCCCCCC/C=C\CCCC)(COC(=O)CCCCCCC/C=C\CCCCCC)COC(=O)CCCN(C)C [Example 4, 3-((4-(Dimethylamino)butanoyl)oxy)-2,2-bis(((9Z)-tetradec-9-enoyloxy)methyl)propyl (9Z)-hexadec-9-enoate] | 76 nm | 97% | 113 µg/mL | 407547 cps | 90 nm | 89% | 355 µg/mL | –
5 | CCCC/C=C\CCCCCCCC(=O)OCC(COC(=O)CCCCCCC/C=C\CCCC)(COC(=O)CCCCCCC/C=C\CCCCCC)COC(=O)CCCCN(C)C [Example 5, 3-((5-(dimethylamino)pentanoyl)oxy)-2,2-bis(((9Z)-tetradec-9-enoyloxy)methyl)propyl (9Z)-hexadec-9-enoate] | 91 nm | 98% | 96 µg/mL | 545507 cps | 103 nm | 94% | 367 µg/mL | –
6 | CCCC/C=C\CCCCCCCC(=O)OCC(COC(=O)CCCCCCC/C=C\CCCC)(COC(=O)CCCCCCC/C=C\CCCCCCCC)COC(=O)CCCCN(C)C [Example 6, 3-((5-(dimethylamino)pentanoyl)oxy)-2,2-bis(((9Z)-tetradec-9-enoyloxy)methyl)propyl (9Z)-octadec-9-enoate] | – | – | – | – | 87 nm | 98% | 333 µg/mL | –
7 | CCCC/C=C\CCCCCCCC(=O)OCC(COC(=O)CCCCCCC/C=C\C/C=C\CCCCC)(COC(=O)CCCCCCC/C=C\CCCC)COC(=O)CCCCN(C)C [Example 7, 3-((5-(dimethylamino)pentanoyl)oxy)-2,2-bis(((9Z)-tetradec-9-enoyloxy)methyl)propyl (9Z,12Z)-octadec-9,12-dienoate] | – | – | – | – | 102 nm | 96% | 320 µg/mL | –
8 | CCCC/C=C\CCCCCCCC(=O)OCC(COC(=O)CCCCCCC)(COC(=O)CCCCCCC/C=C\CCCC)COC(=O)CCN(C)C [Example 8, 2-(((N,N-dimethyl-β-alanyl)oxy]methyl}-2-[(octanoyloxy)methyl)propane-1,3-diyl (9Z,9′Z)bis-tetradec-9-enoate] | 67 nm | 94% | 84 µg/mL | 3853 cps | – | – | – | –
9 | CCCC/C=C\CCCCCCCC(=O)OCC(COC(=O)CCCCCCC)(COC(=O)CCCCCCC/C=C\CCCC)COC(=O)CCCN(C)C [Example 9, 2-(((4-(dimethylamino)butanoyl)oxy)methyl)-2-((octanoyloxy)methyl)propane-1,3-diyl (9Z,9′Z)bis-tetradec-9-enoate] | 108 nm | 62% | 129 µg/mL | – | – | – | – | 549893 cps
10 | CCCC/C=C\CCCCCCCC(=O)OCC(COC(=O)CCCCCCC/C=C\CCCC)(COC(=O)CCCCCCCCC)COC(=O)CCCN(C)C [Example 10, 2-((decanoyloxy)methyl)-2-(((4-(dimethylamino)butanoyl)oxy)methyl)propane-1,3-diyl (9Z,9′Z)bis-tetradec-9-enoate] | 92 nm | 84% | 86 µg/mL | 1203467 cps | 88 nm | 90% | 307 µg/mL | –
11 | CCCC/C=C\CCCCCCCC(=O)OCC(COC(=O)CCCCCCC/C=C\CCCC)(COC(=O)CCCCCCCCCCC)COC(=O)CCCN(C)C [Example 11, 2-(((4-(Dimethylamino)butanoyl)oxy)methyl)-2-((dodecanoyloxy)methyl)propane-1,3-diyl (9Z,9′Z)bis-tetradec-9-enoate] | 83 nm | 92% | 85 µg/mL | 953520 cps | 85 nm | 91% | 402 µg/mL | –
